Measured values published in patent publication US9833520B2, “Labeled, non-peptidic, multivalent integrin antagonist compounds; methods for synthesis and uses thereof” (The Methodist Hospital Research Institute, priority 2011, dated 2017).
“Also recorded” adds a separate entry of the source. Where two headings read alike, the source gives them in different places.

Columns and labels:
purified human αvβ3 = molecular target: T1, purified human αvβ3 (Homo sapiens, UniProt P05106+P06756); assay: ELISA: competitive inhibition of biotinylated vitronectin binding to immobilized purified integrin αvβ3; details: for in vitro measured IC50 increase from IA-monomer: compared to IA-monomer
T1 construct: purchased Chemicon International, Temecula, Calif., USA
Description: In vitro Binding Assay. […] Purified integrin αvβ3 protein (Chemicon International, Temecula, Calif., USA) was applied to 96-well polystyrene microtiter plates at 0.1 μg/well. After overnight incubation at 4° C., the plates were washed, and then blocked with milk solution (KPL, Inc. Gaithersburg, Md., USA) at room temperature for 2 hr. The blocking buffer was removed, and the plates were inoculated in quadruplicate with bivalent IAs with a typical starting concentration of 125 nM. Serial dilutions were prepared in the 96-well plates using multichannel pipettes. Biotinylated vitronectin solution (0.1 μg/well) was added to each well as a standard competitor. The plates were incubated at room temperature for 3 h, washed, and the bound vitronectin was detected using NeutrAvidin-HRP conjugate at 0.01 μg/well (Pierce, Rockford, Ill., USA) and LumiGlo® chemiluminescent substrate system (KPL, Inc.). The luminescence was read using a FLUOstar™ OPTIMA Microplate Reader (Durham, N.C., USA). […] (Peptides International, Inc., Louisville, Ky., USA) was also tested using the same method as described above.
Briefly, purified integrin αvβ3 protein (Chemicon International, Temecula, Calif., USA) was applied to 96-well polystyrene microtiter plates for overnight incubation at 4° C. The plates were washed and then blocked with milk solution (KPL, Inc., Gaithersburg, Md., USA) and the plates were inoculated in quadruplicate with multivalent IAs at different concentrations. Biotinylated vitronectin solution was added to each well as a standard competitor. The plates were incubated at room temperature, washed, and the bound vitronectin detected using NeutrAvidin-HRP® conjugate (Pierce, Rockford, Ill., USA) and LumiGlo® chemiluminescent substrate system (KPL, Inc., Gaithersburg, Md., USA). The luminescence was read using a FLUOstar® OPTIMA Microplate Reader (Durham, N.C., USA).
In vitro Binding Affinity Assay. Purified integrin αvβ3 protein (Chemicon International, Temecula, Calif., USA) was applied to 96-well polystyrene microtiter plates at 1 μg/well. After overnight incubation at 4° C., the plates were washed and then blocked with milk solution (KPL, Inc., Gaithersburg, Md., USA) at room temperature for 2 hr. The blocking buffer was removed, and the plates were inoculated in quadruplicate with bivalent IAs with a typical starting concentration of 125 nM. Serial dilutions were prepared in the 96-well plates using multichannel pipettes. Biotinylated vitronectin solution (0.1 μg/well) was added to each well as a standard competitor.
The plates were incubated at room temperature for 3 hr, washed, and the bound vitronectin was detected using NeutrAvidin-HRP conjugate at 0.01 μg/well (Pierce, Rockford, Ill., USA) and LumiGlo® chemiluminescent substrate system (KPL, Inc.). The luminescence was read using a FLUOstar OPTIMA Microplate Reader (Durham, N.C., USA). […] It measured competitive binding of the integrin antagonist and biotinylated human vitronectin for the immobilized receptor αvβ3.

U-87 xenograft tumors = assay: In vivo and ex vivo NIR fluorescence imaging of U-87 xenograft tumor-bearing mice; details: co-administered with 10 nmol bivalent-IA-Cy5.5; 2, 4, 7, 24, 48 hrs
Description: U-87 MG Xenograft Model, Animal procedures were performed according to approved protocols. Female athymic nude mice (nu/nu), obtained from Charles River Laboratories, Inc. (Cambridge, Mass., USA) at 4-6 weeks of age, were injected subcutaneously in the right rear thigh with 1×10^7 U-87 MG cells suspended in 100 μL of phosphate-buffered saline (PBS). The cancer cells were harvested from sub-confluent cultures with 0.25% trypsin. Trypsinization was stopped with DMEM containing 10% FBS, after which the cells were washed once in serum-free medium and resuspended in PBS. Trypan blue exclusion was performed to ensure >90% cell viability. The tumor bearing mice were subjected to in vivo imaging studies when the tumors reached 0.4-0.6 cm in diameter.
In vivo Fluorescence Imaging of Tumors. ˜3×10^6 U-87 cells were implanted bilaterally in the posterior flanks of immunocompromised (nu/nu) mice and grown to ˜4 to 6 mm in diameter. Imaging was carried out in groups of five mice. After palpable masses were detected, animals were manually restrained and imaging probes were intravenously administered (lateral tail vein) using a 30-Ga needle via aseptic technique. Free Cy5.5 was prepared by dissolving the same Cy5.5NHS ester used for labeling the bivalent IA (GE Healthcare, Piscatway, N.J., USA) in phosphate buffered saline (PBS), pH 7.4 overnight at 4° C. Stock concentration of free Cy5.5 was measured optically using the molar extinction coefficient of 250000M-1 cm-1 using a UV-visible spectrophotometer at the maximum absorbance wavelength (675 nm) as recommended by the manufacturer. The bivalent-IA-Cy5.5 was weighed and confirmed by spectrophotometric measurement. Appropriate dilutions of each probe were made in PBS, pH 7.4, and each was filter sterilized (0.2-μm) immediately prior to use. All animals weighed between 18 and 20 g, and each received 10 nmol of imaging probe (in a total volume of 100 μL). Fluorescence imaging was performed with a small animal-dedicated optical imaging system (Xenogen/Caliper IVIS-200, Mountain View, Calif., USA) under continuous 1.5-2.0% isoflurane delivered through the integrated anesthesia nosecone system. At 2-, 4-, 7-, 24-, and 48-hrs' post-injection, images were acquired with the surface of the tissue of interest (tumor) approximating a perpendicular viewing angle relative to the camera line of sight; this viewing angle was also used for normal tissue selection.
For determining tumor contrast, mean fluorescence intensities of the tumor area (T) defined as radiance (photons/sec/cm2/sr) at the right rear leg of the animal and of the area (N) at the right flank (normal tissue) were calculated by region-of-interest (ROI) analysis using the corresponding photograph of each image acquisition dataset to identify the tumor region. Pre-injection imaging was also performed to determine baseline autofluorescence. For competitive inhibition studies, mice (n=3) were co-injected with 500 nmol bivalent IA and 10 nmol of imaging probe (bivalent-IA-Cy5.5) following the same procedure described above. Free Cy5.5 studies were performed in the same manner following the intravenous injection of 10 nmol. For ex vivo biodistribution imaging, two tumor-bearing mice were imaged 24 hrs post injection of bivalent-IA-Cy5.5 and thereafter euthanized per IACUC protocol (CO2 and cervical dislocation). Tumor and major internal organs (heart, lung, liver, spleen, gastrointestinal tract, and kidneys) were harvested, weighed, and imaged against a black paper background. All image acquisition parameters were as follows: epi-illumination; Cy5.5 Em/Ex; Bin: (HR)4, FOV: 12.9; f2; 0.2 sec.

[1] = Example 1 bivalent IA study, FIG. 4, read-out: IC50 of vitronectin binding to αvβ3 (ELISA)
[2] = monomer/dimer/trimer study, FIG. 28, Table 5, read-out: IC50 (nM) ELISA

| Structure (SMILES) | IC50 (purified human αvβ3; [1]) | IC50 (purified human αvβ3; Example 2, PEG-linked ligands, averages of at least three determinations, read-out: In vitro EL1SA IC50) | IC50 (purified human αvβ3; [2]) | increase in IC50 from the dimer to trimer (purified human αvβ3; compared to IA dimer) | in vitro measured IC50 increase from IA-monomer (purified human αvβ3) | integrin αvβ3 binding affinity compared to monomer (purified human αvβ3) | improvement in receptor affinity (IC50) over c-[RGDfV] (purified human αvβ3; compared to c-[RGDfV]) | competitive inhibition of bivalent-IA-Cy5.5 tumor fluorescence signal (U-87 xenograft tumors) |
| --- | --- | --- | --- | --- | --- | --- | --- | --- |
| NCCS(=O)(=O)N[C@@H](CNC(=O)c1ccc(OCCNC2=NCCCN2)cc1)C(=O)O [IA, 4-[2-(3,4,5,6-tetrahydropyrimidine-2-ylamino)ethyloxy]benzoyl-2-(S)-aminoethylsulfonyl-amino-β-alanine] | 22.3 ± 4.51 nM | 22.3 nM | 11 nM | – | – | – | – | – |
| O=C(NCCS(=O)(=O)N[C@@H](CNC(=O)c1ccc(OCCNC2=NCCCN2)cc1)C(=O)O)OCCN(CCOC(=O)NCCS(=O)(=O)N[C@@H](CNC(=O)c1ccc(OCCNC2=NCCCN2)cc1)C(=O)O)CCOC(=O)NCCS(=O)(=O)N[C@@H](CNC(=O)c1ccc(OCCNC2=NCCCN2)cc1)C(=O)O [IA trimer] | – | – | 0.22 nM | 2 fold | 56 fold | – | – | – |
| NC(CCCCCC(=O)NCCS(=O)(=O)N[C@@H](CNC(=O)c1ccc(OCCNC2=NCCCN2)cc1)C(=O)O)C(=O)NCCS(=O)(=O)N[C@@H](CNC(=O)c1ccc(OCCNC2=NCCCN2)cc1)C(=O)O (stereo partly drawn) [bivalent IA] | 0.4 ± 0.11 nM | – | 0.44 nM | – | 28 fold | significantly higher integrin avb3-binding affinity and specificity than IA monomer | 10 fold | Significant blocking of tumor fluorescence signal; also recorded: reduced at all timepoints measured |
